What was measured:
Assay type in all cases: in vivo
Viola tricolor (VIOTR) [1] = assay: Pre-emergence herbicidal action against VIOTR
How it was run: (§1)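 Dosages of 320 g/ha or less; pre-emergence; WP or EC in aqueous spray, 0.5% additive, 600 l/ha; greenhouse; visual % effect after ~3 wk relative to control pots.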

[2] = system: Alopecurus myosuroides (ALOMY); assay: Post-emergence herbicidal action against ALOMY; settings: visual rating about 3 weeks after treatment vs untreated controls (100% = plants have died, 0% = like control plants)
How it was run: (§2)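 Rates were 320 g/ha or below, applied as aqueous WP/EC spray with 0.5% additive (600 l/ha) onto one-leaf-stage plants. About 3 weeks later in the greenhouse, damage was scored visually against untreated plants on a 0–100% scale, where 100% means plants died.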

[3] = system: Pharbitis purpurea (PHBPU); assay: Pre-emergence herbicidal action against PHBPU; settings: dosage 320 g/ha
How it was run: as §1

[4] = system: Alopecurus myosuroides (ALOMY); assay: Pre-emergence herbicidal action against ALOMY; settings: 320 g/ha; scored visually after about 3 weeks; 100% = plants have died
How it was run: as §1

[5] = system: Abutilon theophrasti (ABUTH); assay: Pre-emergence herbicidal action against ABUTH; settings: 100% = plants have died
How it was run: as §1

[6] = system: Polygonum convolvulus (POLCO); assay: Post-emergence herbicidal action against POLCO; settings: dosage 320 g/ha
How it was run: as §2

Oryza sativa (ORYSA) = settings: crop plant compatibility, 80 g/ha, effect in comparison to untreated controls
How it was run: (§3)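 Effects were read visually as % versus untreated controls (0% = no effect, 100% = death) about 3 weeks post-treatment. Application was a post-emergence spray at the one-leaf stage of WP/EC formulations with 0.5% additive at 600 l/ha. Different dosages are denoted a, b and c.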

Zea mays (ZEAMX) [7] = settings: crop plant compatibility, 80 g/ha, effect vs untreated controls
How it was run: as §3

[8] = system: Polygonum convolvulus (POLCO); assay: Pre-emergence herbicidal action against POLCO; settings: dosage 320 g/ha
How it was run: as §1

Lolium rigidum (LOLRI) [9] = assay: Pre-emergence herbicidal action against LOLRI; settings: dosage 320 g/ha
How it was run: as §1

[10] = system: Amaranthus retroflexus (AMARE); assay: Pre-emergence herbicidal action against AMARE; settings: 320 g/ha, visual scoring after about 3 weeks vs untreated controls
How it was run: as §1

Zea mays (ZEAMX) [11] = settings: pre-emergence, 80 g/ha, crop plant compatibility, in comparison to untreated controls
How it was run: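 Crop injury rated visually in percent against untreated plants roughly 3 weeks after treatment (0% no effect, 100% plants dead). Compounds, as WP or EC with 0.5% additive in 600 l/ha water, were applied to the covering soil right after sowing; greenhouse growth. Suffixes a, b, c denote different dosages.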

Setaria viridis (SETVI) [12] = assay: Pre-emergence herbicidal action against SETVI; settings: dosage 320 g/ha
How it was run: as §1

Viola tricolor (VIOTR) [13] = assay: Post-emergence herbicidal action against VIOTR
How it was run: as §2

[14] = system: Amaranthus retroflexus (AMARE); assay: Post-emergence herbicidal action against AMARE
How it was run: as §2

Setaria viridis (SETVI) [15] = assay: Post-emergence herbicidal action against SETVI; settings: dosage 320 g/ha
How it was run: as §2

Avena fatua (AVEFA) [16] = assay: Pre-emergence herbicidal action against AVEFA; settings: visual scoring after about 3 weeks vs untreated controls
How it was run: as §1

[17] = system: Matricaria inodora (MATIN); assay: Pre-emergence herbicidal action against MATIN
How it was run: as §1

[18] = system: Verconica persica (VERPE); assay: Post-emergence herbicidal action against VERPE
How it was run: as §2

[19] = system: Abutilon theophrasti (ABUTH); assay: Post-emergence herbicidal action against ABUTH; settings: visual rating about 3 weeks after treatment vs untreated controls (100% = plants have died, 0% = like control plants)
How it was run: as §2

Lolium rigidum (LOLRI) [20] = assay: Post-emergence herbicidal action against LOLRI; settings: dosage 320 g/ha
How it was run: as §2

[21] = system: Echinochloa crus-galli (ECHCG); assay: Post-emergence herbicidal action against ECHCG
How it was run: as §2

Avena fatua (AVEFA) [22] = assay: Post-emergence herbicidal action against AVEFA; settings: 320 g/ha, visual rating about 3 weeks after treatment
How it was run: as §2

[23] = system: Echinochloa crus-galli (ECHCG); assay: Pre-emergence herbicidal action against ECHCG; settings: dosage 320 g/ha
How it was run: as §1

[24] = system: Pharbitis purpurea (PHBPU); assay: Post-emergence herbicidal action against PHBPU
How it was run: as §2

[25] = system: Verconica persica (VERPE); assay: Pre-emergence herbicidal action against VERPE; settings: dosage 320 g/ha
How it was run: as §1

[26] = Dosage column 320 g/ha (title prints 3200 g/ha), scored visually after about 3 weeks
[27] = 80 g/ha, visual rating about 3 weeks after treatment vs untreated controls (100% = plants have died, 0% = like control plants)
[28] = 320 g/ha, visual rating about 3 weeks after treatment

Structure (SMILES) | Pre-emergence action against VIOTR in % (Viola tricolor (VIOTR) [1]; 320 g/ha, Viola tricolor) | Pre-emergence action against VIOTR in % (Viola tricolor (VIOTR) [1]; dosage 80 g/ha) | Post-emergence action against ALOMY in % ([2]; 320 g/ha) | Pre-emergence action against PHBPU in % [3] | Pre-emergence action against ALOMY [4] | Pre-emergence action against ABUTH [5, 26] | Post-emergence action against ORYSA in % (Oryza sativa (ORYSA)) | Post-emergence action against ZEAMX in % (Zea mays (ZEAMX) [7]) | Pre-emergence action against POLCO in % [8] | Pre-emergence action against LOLRI in % (Lolium rigidum (LOLRI) [9]) | Pre-emergence action against AMARE in % [10] | Pre-emergence action against ZEAMX in % (Zea mays (ZEAMX) [11]) | Pre-emergence action against SETVI in % (Setaria viridis (SETVI) [12]) | Post-emergence action against VIOTR in % (Viola tricolor (VIOTR) [13]; 320 g/ha) | Post-emergence action against AMARE in % [14, 27] | Post-emergence action against AMARE in % [14, 28] | Post-emergence action against SETVI in % (Setaria viridis (SETVI) [15]) | Pre-emergence action against AVEFA in % (Avena fatua (AVEFA) [16]; 320 g/ha) | Pre-emergence action against MATIN in % ([17]; dosage 80 g/ha) | Pre-emergence action against MATIN in % ([17]; dosage 320 g/ha) | further results
O=C(O)COc1nn(-c2ncccc2C(F)(F)F)c(-c2ccc(F)nc2)c1Cl [Example I-327] | 100% | 100% | 100% | 80% | 100% | 100% | 0% | 0% | 90% | 100% | 100% | 20% | 100% | 90% | 90% | 90% | 90% | 80% | 80% | 80% | Pre-emergence action against ABUTH ([5]; 80 g/ha, scored visually after about 3 weeks vs untreated controls, 0% = like control plants): 100%; Post-emergence action against POLCO in % [6]: 80%; Post-emergence action against VIOTR in % (Viola tricolor (VIOTR) [13]; 80 g/ha): 90%; Post-emergence action against VERPE in % ([18]; 320 g/ha, VERPE): 90%; Post-emergence action against VERPE in % ([18]; dosage 80 g/ha): 80%; Post-emergence action against ABUTH in % ([19]; 80 g/ha): 80%; Post-emergence action against ABUTH in % ([19]; 320 g/ha): 90%; Post-emergence action against LOLRI in % (Lolium rigidum (LOLRI) [20]): 90%; Post-emergence action against ECHCG in % ([21]; dosage 80 g/ha): 80%; Post-emergence action against ECHCG in % ([21]; dosage 320 g/ha): 90%
CCOC(=O)COc1nn(-c2nc(F)ccc2F)c(-c2ccc(F)nc2)c1Br [Example I-330] | 100% | 90% | 90% | 90% | 100% | 100% | 10% | 10% | 90% | 90% | 100% | 20% | 100% | 80% | 80% | 80% | 80% | 90% | 80% | 90% | Post-emergence action against ALOMY in % ([2]; 80 g/ha): 80%; Post-emergence action against AVEFA in % (Avena fatua (AVEFA) [22]): 80%; Pre-emergence action against ECHCG in % [23]: 100%; Pre-emergence action against AVEFA in % (Avena fatua (AVEFA) [16]; 80 g/ha): 80%; Post-emergence action against PHBPU in % ([24]; dosage 80 g/ha): 80%; Post-emergence action against PHBPU in % ([24]; dosage 320 g/ha): 90%; Post-emergence action against VERPE in % ([18]; 320 g/ha, VERPE): 80%; Post-emergence action against VERPE in % ([18]; dosage 80 g/ha): 80%; Post-emergence action against ABUTH in % ([19]; 80 g/ha): 80%; Post-emergence action against ABUTH in % ([19]; 320 g/ha): 80%; Post-emergence action against LOLRI in % (Lolium rigidum (LOLRI) [20]): 90%; Pre-emergence action against VERPE in % [25]: 90%; Post-emergence action against ECHCG in % ([21]; dosage 80 g/ha): 80%; Post-emergence action against ECHCG in % ([21]; dosage 320 g/ha): 90%

From patent US20240041042A1, “1-(PYRIDYL)-5-AZINYLPYRAZOLE DERIVATIVES, AND THEIR USE FOR CONTROL OF UNDESIRED PLANT GROWTH” (Bayer Aktiengesellschaft, priority 2020, published 2024)
